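Tested at 5 concentrations; 48 h exposure; 96-well plates; endpoints linearly interpolated, else capped at highest concentration. GI50 marks 50% less growth. Definition used: TGI = concentration required for complete inhibition of growth.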
Key:
Experiment in all cases: NCI-60 cell line screen, 48 h
HCT-116 colon = system: HCT-116 colon
HL-60(TB) leukemia = system: HL-60(TB) leukemia
NCI-H226 lung = system: NCI-H226 lung
RPMI-8226 leukemia = system: RPMI-8226 leukemia
SK-MEL-28 melanoma = system: SK-MEL-28 melanoma
SNB-75 CNS = system: SNB-75 CNS
SR leukemia = system: SR leukemia
SW-620 colon = system: SW-620 colon
UACC-257 melanoma = system: UACC-257 melanoma
UACC-62 melanoma = system: UACC-62 melanoma

## CC[N+](CC)=c1sc2c(s1)C(c1ccc(Cl)cc1)Oc1ccc(Cl)cc1-2 (stereo not given)
HCT-116 colon
  GI50: 0.568 µM
  TGI: 1.89 µM
HL-60(TB) leukemia
  GI50: 2.22 µM
  TGI: 5.98 µM
NCI-H226 lung
  GI50: 5.56 µM
  TGI: 33.1 µM
RPMI-8226 leukemia
  GI50: 1.99 µM
  TGI: 7.5 µM
SK-MEL-28 melanoma
  GI50: 1.32 µM
  TGI: 2.82 µM
SNB-75 CNS
  GI50: 0.783 µM
  TGI: 10.6 µM
SR leukemia
  GI50: 2.68 µM
  TGI: 7.15 µM
SW-620 colon
  GI50: 1.08 µM
  TGI: 2.72 µM
UACC-257 melanoma
  GI50: 2.33 µM
  TGI: 5.46 µM
UACC-62 melanoma
  GI50: 1.65 µM
  TGI: 4.14 µM

## CC(C)CC(NC(=O)c1cccc(O)c1O)C(=O)NCc1cc(CNC(=O)C(CC(C)C)NC(=O)c2cccc(O)c2O)cc(CNC(=O)C(CC(C)C)NC(=O)c2cccc(O)c2O)c1 (stereo not given)
HCT-116 colon
  TGI: 38.4 µM
HL-60(TB) leukemia
  TGI: 19.2 µM
NCI-H226 lung
  TGI: 60.2 µM
RPMI-8226 leukemia
  TGI: 21.8 µM
SK-MEL-28 melanoma
  TGI: 68.5 µM
SNB-75 CNS
  TGI: 45.9 µM
SR leukemia
  TGI: 32.2 µM
SW-620 colon
  TGI: 61.8 µM
UACC-257 melanoma
  TGI: 58.9 µM
UACC-62 melanoma
  TGI: 17.8 µM

## CCC[CH2][Sn]1([CH2]CCC)[O]CC(Cc2ccccc2)[O]1 (stereo not given)
HCT-116 colon
  GI50: 3.75 µM
  TGI: 13.5 µM
HL-60(TB) leukemia
  GI50: 0.51 µM
  TGI: 2.31 µM
NCI-H226 lung
  GI50: 15.4 µM
  TGI: 29.5 µM
RPMI-8226 leukemia
  GI50: 0.312 µM
  TGI: 3.62 µM
SK-MEL-28 melanoma
  GI50: 1.58 µM
  TGI: 5.24 µM
SNB-75 CNS
  GI50: 2.76 µM
  TGI: 7.74 µM
SR leukemia
  GI50: 1.35 µM
  TGI: 4.84 µM
SW-620 colon
  GI50: 1.63 µM
  TGI: 3.48 µM
UACC-257 melanoma
  GI50: 1.88 µM
  TGI: 5.27 µM
UACC-62 melanoma
  GI50: 1.7 µM
  TGI: 3.69 µM

## COC(=O)[C@@H](C)C[C@H](Cc1ccccc1)NC(=O)c1csc(CC[C@H](C(C)C)N(C)C(=O)[C@@H](NC(=O)[C@H]2CCCCN2C)C(C)C)n1
HCT-116 colon
  GI50: 0.235 µM
  TGI: > 14.8 µM
HL-60(TB) leukemia
  GI50: 0.0799 µM
  TGI: 0.298 µM
NCI-H226 lung
  GI50: 0.856 µM
  TGI: > 23.9 µM
RPMI-8226 leukemia
  GI50: 0.135 µM
  TGI: > 33.3 µM
SK-MEL-28 melanoma
  GI50: 1.45 µM
  TGI: > 33.3 µM
SNB-75 CNS
  GI50: 0.222 µM
  TGI: 9.2 µM
SR leukemia
  GI50: 0.0686 µM
  TGI: > 33.3 µM
SW-620 colon
  GI50: 0.164 µM
  TGI: > 33.3 µM
UACC-257 melanoma
  GI50: > 33.3 µM
  TGI: > 33.3 µM
UACC-62 melanoma
  GI50: 0.14 µM
  TGI: > 33.3 µM

## O=C(CO[N+](=O)[O-])Nc1ccc(C(=O)/C=C/c2ccc(Cl)cc2)cc1
HCT-116 colon
  GI50: 0.298 µM
  TGI: 1.09 µM
HL-60(TB) leukemia
  GI50: 3.59 µM
  TGI: > 100 µM
NCI-H226 lung
  GI50: 5.15 µM
  TGI: 29 µM
RPMI-8226 leukemia
  GI50: 1.41 µM
  TGI: 8.36 µM
SK-MEL-28 melanoma
  GI50: 4.96 µM
  TGI: 18.1 µM
SNB-75 CNS
  GI50: 3.19 µM
  TGI: 17.6 µM
SR leukemia
  GI50: 3.65 µM
  TGI: > 100 µM
SW-620 colon
  GI50: 1.44 µM
  TGI: 2.88 µM
UACC-257 melanoma
  GI50: 4.33 µM
  TGI: 15.9 µM
UACC-62 melanoma
  GI50: 2.76 µM
  TGI: 11 µM

## COc1cccc(-c2nc3sccn3c2-c2ccnc(NCCCNS(=O)(=O)c3cccc(F)c3)c2)c1
HCT-116 colon
  GI50: 2.83 µM
  TGI: > 100 µM
HL-60(TB) leukemia
  GI50: 1.84 µM
  TGI: 4.91 µM
NCI-H226 lung
  GI50: 2.38 µM
  TGI: 8.38 µM
RPMI-8226 leukemia
  GI50: 1.29 µM
  TGI: 4.56 µM
SK-MEL-28 melanoma
  GI50: 2.96 µM
  TGI: 9.82 µM
SNB-75 CNS
  GI50: 1.73 µM
  TGI: 5.47 µM
SR leukemia
  GI50: 2.59 µM
  TGI: > 100 µM
SW-620 colon
  GI50: 3.16 µM
  TGI: > 100 µM
UACC-257 melanoma
  GI50: 2.89 µM
  TGI: 9.68 µM
UACC-62 melanoma
  GI50: 1.62 µM
  TGI: 5 µM

## Oc1[nH]c2ccccc2c1N=Nc1ccccn1
HCT-116 colon
  TGI: 25.2 µM
HL-60(TB) leukemia
  TGI: 86.5 µM
NCI-H226 lung
  TGI: 61.7 µM
RPMI-8226 leukemia
  TGI: > 100 µM
SK-MEL-28 melanoma
  TGI: > 100 µM
SNB-75 CNS
  TGI: 86.6 µM
SR leukemia
  TGI: 47.6 µM
SW-620 colon
  TGI: > 100 µM
UACC-257 melanoma
  TGI: > 100 µM
UACC-62 melanoma
  TGI: > 100 µM

## S=C(Nc1ccc(Br)cc1)Nc1ccc(Br)cc1
HCT-116 colon
  GI50: 4.21 µM
  TGI: > 100 µM
HL-60(TB) leukemia
  GI50: 5.79 µM
  TGI: > 100 µM
NCI-H226 lung
  GI50: > 100 µM
  TGI: > 100 µM
RPMI-8226 leukemia
  GI50: 4.05 µM
  TGI: > 100 µM
SK-MEL-28 melanoma
  GI50: 49.8 µM
  TGI: > 100 µM
SNB-75 CNS
  GI50: 98.7 µM
  TGI: > 100 µM
SR leukemia
  GI50: 6.96 µM
  TGI: > 100 µM
SW-620 colon
  GI50: 4.43 µM
  TGI: > 100 µM
UACC-257 melanoma
  GI50: 7.86 µM
  TGI: > 100 µM
UACC-62 melanoma
  GI50: 3.52 µM
  TGI: > 100 µM

## CC(=O)O[C@H]1CC[C@@]2(C)C(=CC[C@H]3[C@@H]4CC[C@H](c5cc(C(F)(F)F)n(C(C)=O)n5)[C@@]4(C)CC[C@@H]32)C1
HCT-116 colon
  TGI: 15.8 µM
HL-60(TB) leukemia
  TGI: 15.4 µM
NCI-H226 lung
  TGI: 20.8 µM
RPMI-8226 leukemia
  TGI: 17.9 µM
SK-MEL-28 melanoma
  TGI: 28.9 µM
SNB-75 CNS
  TGI: 20.8 µM
SR leukemia
  TGI: 14.8 µM
SW-620 colon
  TGI: 49 µM
UACC-257 melanoma
  TGI: 13.9 µM
UACC-62 melanoma
  TGI: 24.5 µM

## CCN(Cc1cccc(F)c1)c1ccc(CO)c(Cl)c1
HCT-116 colon
  GI50: 0.0674 µM
  TGI: 5.85 µM
HL-60(TB) leukemia
  GI50: 19.6 µM
  TGI: > 69.8 µM
NCI-H226 lung
  GI50: 0.0467 µM
  TGI: 0.18 µM
RPMI-8226 leukemia
  GI50: 5.98 µM
  TGI: > 56 µM
SK-MEL-28 melanoma
  GI50: 16.2 µM
  TGI: 45.5 µM
SNB-75 CNS
  GI50: 12 µM
  TGI: 54 µM
SR leukemia
  GI50: 27.3 µM
  TGI: > 70.3 µM
SW-620 colon
  GI50: 0.808 µM
  TGI: > 100 µM
UACC-257 melanoma
  GI50: 0.114 µM
  TGI: 0.344 µM
UACC-62 melanoma
  GI50: 0.0741 µM
  TGI: 0.649 µM

## CC(=O)[O][Ga]([Cl])[O]C(C)=O
HCT-116 colon
  GI50: > 100 µM
  TGI: > 100 µM
HL-60(TB) leukemia
  GI50: > 100 µM
  TGI: > 100 µM
NCI-H226 lung
  GI50: > 100 µM
  TGI: > 100 µM
RPMI-8226 leukemia
  GI50: > 100 µM
  TGI: > 100 µM
SK-MEL-28 melanoma
  GI50: > 100 µM
  TGI: > 100 µM
SNB-75 CNS
  GI50: > 100 µM
  TGI: > 100 µM
SR leukemia
  GI50: > 100 µM
  TGI: > 100 µM
SW-620 colon
  GI50: > 100 µM
  TGI: > 100 µM
UACC-257 melanoma
  GI50: > 100 µM
  TGI: > 100 µM
UACC-62 melanoma
  GI50: > 100 µM
  TGI: > 100 µM

## COc1ccc(S(=O)(=O)N2CC(C)(C)CN(S(=O)(=O)c3ccc(OC)cc3)C2C(=O)NO)cc1
HCT-116 colon
  GI50: > 20 µM
  TGI: > 20 µM
HL-60(TB) leukemia
  GI50: > 10.6 µM
  TGI: > 20 µM
NCI-H226 lung
  GI50: > 17.1 µM
  TGI: > 20 µM
RPMI-8226 leukemia
  GI50: 6.37 µM
  TGI: > 20 µM
SK-MEL-28 melanoma
  GI50: > 20 µM
  TGI: > 20 µM
SNB-75 CNS
  GI50: > 20 µM
  TGI: > 20 µM
SR leukemia
  GI50: 13.6 µM
  TGI: > 20 µM
SW-620 colon
  GI50: > 20 µM
  TGI: > 20 µM
UACC-257 melanoma
  GI50: > 19.1 µM
  TGI: > 20 µM
UACC-62 melanoma
  GI50: > 19.2 µM
  TGI: > 20 µM

## C#CCOc1cccc(-c2ncnc3cc(NC(=O)CCl)ccc23)c1
HCT-116 colon
  GI50: 0.034 µM
  TGI: 1.48 µM
HL-60(TB) leukemia
  GI50: 0.536 µM
  TGI: 4.36 µM
NCI-H226 lung
  GI50: 1.42 µM
  TGI: 5.54 µM
RPMI-8226 leukemia
  GI50: 1.67 µM
  TGI: 6.13 µM
SK-MEL-28 melanoma
  GI50: 1.56 µM
  TGI: 4.5 µM
SNB-75 CNS
  GI50: 1.15 µM
  TGI: 9.48 µM
SR leukemia
  GI50: 0.0363 µM
  TGI: > 100 µM
SW-620 colon
  GI50: 0.0221 µM
  TGI: 1.51 µM
UACC-257 melanoma
  GI50: 1.64 µM
  TGI: 5.19 µM
UACC-62 melanoma
  GI50: 0.481 µM
  TGI: 3.07 µM

Reference: PubChem BioAssay (NCI)
